Broadly, the IC50 is the midpoint of a concentration-inhibition curve.

The test system of the first assay is HeLa. The assay is described as follows: Antiproliferative activity against human HeLa cells by MTT assay. The note with it: Homo sapiens, HeLa; read-out: IC50. Format: functional, cell-based. (Tetrazolium dyes change colour on reduction, which living cells bring about.)
As for `C/C1=C\CC[C@](C)(O)/C=C/[C@]2(C(C)C)CC/C(=C/CC1)C(=O)O2` (relative stereo) [LAEVIGATLACTON B], the half-maximal inhibitory concentration (IC50) worked out at 38.4 µM.

The same assay, now with this note: hela.
For `C/C1=C\C=C(\C(C)C)CC/C(C(=O)O)=C\CC/C(C)=C/CC1` [NEOCROTOCEMBRANEIC ACID], the IC50 result is on record as “Not Active”. Regarding `C/C1=C\CC[C@](C)(O)/C=C/[C@]2(C(C)C)CC/C(=C\CC1)C(=O)O2` (relative stereo) [LAEVIGATLACTONE C], the IC50 entry was “Not Active”.

Consider `CC(C)[C@@]12/C=C/[C@@](C)(O)C/C=C/[C@](C)(OO)CC/C=C(\CC1)C(=O)O2` (relative stereo) [LAEVIGATLACTONE F], for which the IC50 result is “Not Active”. Take `CC(C)[C@@]12/C=C/[C@@](C)(O)C/C=C/[C@](C)(O)CC/C=C(\CC1)C(=O)O2` (relative stereo) [LAEVIGATLACTONE E]: the IC50 entry is reported as “Not Active”. Same read-out and setting: as for `C/C1=C\CC/C(C)=C/[C@@H](O)[C@]2(C(C)C)CC/C(=C\CC1)C(=O)O2` (relative stereo) [LAEVIGATLACTONE D], the entry is “Not Active”.

With `C/C1=C\CC[C@@](C)(O)/C=C/[C@]2(C(C)C)CC/C(=C\CC1)C(=O)O2` (relative stereo) [LAEVIGATLACTONE A], the IC50 result is given as “Not Active”.

These data come from ChEMBL document CHEMBL1157093, “Lactonecembranoids from Croton laevigatus” (J Nat Prod, 2010).
